These results are taken from US20090137034A1, “METHODS FOR PERFUSION AND PLATING OF PRIMARY HEPATOCYTES AND A MEDIUM THEREFORE” (MASSACHUSETTS INSTITUTE OF TECHNOLOGY, priority 2002, published 2009).

Data set [1] relates to CYP 1A1. As to the kind of experiment: CYP 1A1 inducibility/P450 function in primary hepatocytes in collagen sandwich culture (EROD assay, 3-MC induction). Format: cell-based. The settings on record: mechanism under investigation. How it is done:
To study the effect of different compounds on the function of hepatocyte function and phenotype, hepatocytes were isolated according to techniques well known in the art and cultured in a collagen sandwich configuration. Hepatocytes were induced with the addition of 2 nM 3-methylcholanthrene (3-MC). CYP 1A1 was measured using the EROD assay as described in Pearce et al., 1996. Albumin secretion was measured using ELISA, as described in Dunn et al., 1991. Western blot analysis was performed using techniques well known in the art, using an antibody to CYP1A1.

Data set [2] has as its system activated macrophages. The settings on record: stated as an observation, no source given; cited from earlier work.

Take `N[C@H]1C(O)O[C@H](CO)[C@@H](O)[C@@H]1O` (some centres unmarked) [glucosamine]: the P450 function result in data set [1] is listed as “protection of P450 function”. Moreover, the NO synthesis result in data set [2] is “inhibits NO synthesis”.
